pIC50: −log10 of the molar value.
Key:
TNF-α = test: Inhibition activity of TNF-α in whole blood test (LPS-stimulated, ELISA); assay type: cell-based; settings: human whole blood diluted 1:1 with DPBS, lipopolysaccharide 100 ng/ml, overnight
Method: Experiment 2: Measurement of Inhibition Activity of TNF-α in Whole Blood Test
Fresh blood was collected from health human body using heparin sodium tubes. In Grade II Bio-safety Cabinet, whole blood was diluted in the ratio of 1:1 with DPBS (Dulbecco's Phosphate Buffered Saline). 100 μl of the diluted blood samples were taken and added to each of wells of a 96-well plate. 0.5 μl of compound solution was added to each well. The compound was formulated with dimethyl sulfoxide. The 96-well plate was placed in CO2 incubator and incubated for 30 min, then lipopolysaccharide in final concentration of 100 ng/ml was added, and incubated overnight. The 96-well plate was shaked for homogenization, and from each well 10 μl of solution was taken and transferred to another 96-well plate for ELISA to measure TNF-α content. The following formula was used to calculate inhibition rate, and the inhibition rate was used for calculation of IC50 value with XLfit. Inhibition rate=[signal value (MAX)−signal value (sample)]×100/[signal value (MAX)−signal value (MIN)]
Notation: MAX represents blank control stimulated with only lipopolysaccharide; MIN represents positive control with 1 μmol/l of dexamethasone.

PDE-4D3 = PDE-4D3 (Homo sapiens, UniProt Q08499); test: Lance cAMP assay, PDE-4D3 inhibition; assay type: biochemical; settings: PDE4D3 0.024 nM, 20 nM cAMP, 90 min room temperature
Chain of PDE-4D3 (Q08499 1-673 isoform Q08499-2): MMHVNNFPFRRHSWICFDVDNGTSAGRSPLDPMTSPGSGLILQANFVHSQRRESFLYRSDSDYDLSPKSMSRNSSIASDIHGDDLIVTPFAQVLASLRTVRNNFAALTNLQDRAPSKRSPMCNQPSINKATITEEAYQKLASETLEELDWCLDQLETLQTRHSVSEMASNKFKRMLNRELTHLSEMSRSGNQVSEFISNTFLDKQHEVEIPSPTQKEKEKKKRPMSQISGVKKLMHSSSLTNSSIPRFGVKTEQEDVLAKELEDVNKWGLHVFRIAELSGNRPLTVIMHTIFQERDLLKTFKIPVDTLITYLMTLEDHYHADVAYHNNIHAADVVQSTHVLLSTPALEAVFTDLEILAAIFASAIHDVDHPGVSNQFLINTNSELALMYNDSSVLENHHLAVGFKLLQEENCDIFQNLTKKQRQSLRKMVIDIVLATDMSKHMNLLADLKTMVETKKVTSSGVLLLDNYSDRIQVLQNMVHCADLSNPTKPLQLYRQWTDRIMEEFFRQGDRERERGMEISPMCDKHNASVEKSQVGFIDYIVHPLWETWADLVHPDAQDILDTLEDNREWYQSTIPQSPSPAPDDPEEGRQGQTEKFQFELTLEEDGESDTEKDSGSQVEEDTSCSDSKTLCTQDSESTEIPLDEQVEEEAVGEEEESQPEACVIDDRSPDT
Method: (§1) Experimental Methods: Lance cAMP Assay:
(§2) Test samples were precisely weighed, added to and dissolved in DMSO, mixed sufficiently so as to reach 100 μM. The above mother solution was then diluted with DMSO to reach 1 μM, and then diluted 4 times to reach 0.0038 nM.
(§3) To 384 well plate were added 2.5 μl of substrate 20 nM cAMP and 50 nl of compound DMSO solution, then added 2.5 μl of PDE enzyme (PDE4B1 0.18 nM, PDE4D3 0.024 nM) buffer solution (1×HBSS, 5 mM Hepes pH 7.4, 3 mM MgCl2, 0.1% BSA). After incubation at room temperature for 90 min, 5 μl of Alexa Fluor® 647-anti cAMP antibody was added and incubated for 30 min, 10 μl of detection reagent was added and incubated for 60 min, then its LANCE signal was detected under 665 nm, inhibition rate was calculated by the following formulation, and IC50 values were calculated from inhibition rate using XLfit. Inhibition rate=[signal value (MAX)−signl value (sample)]×100/[signal value (MAX)−signal value (MIN)]
(§4) Notation: MAX: blank control without enzyme; MIN: blank control without compound.

PDE-4B1 = PDE-4B1 (Homo sapiens, UniProt Q07343); test: Lance cAMP assay, PDE-4B1 inhibition; assay type: biochemical; settings: PDE4B1 0.18 nM, 20 nM cAMP, 90 min room temperature
Chain of PDE-4B1 (Q07343 whole entry, species assumed): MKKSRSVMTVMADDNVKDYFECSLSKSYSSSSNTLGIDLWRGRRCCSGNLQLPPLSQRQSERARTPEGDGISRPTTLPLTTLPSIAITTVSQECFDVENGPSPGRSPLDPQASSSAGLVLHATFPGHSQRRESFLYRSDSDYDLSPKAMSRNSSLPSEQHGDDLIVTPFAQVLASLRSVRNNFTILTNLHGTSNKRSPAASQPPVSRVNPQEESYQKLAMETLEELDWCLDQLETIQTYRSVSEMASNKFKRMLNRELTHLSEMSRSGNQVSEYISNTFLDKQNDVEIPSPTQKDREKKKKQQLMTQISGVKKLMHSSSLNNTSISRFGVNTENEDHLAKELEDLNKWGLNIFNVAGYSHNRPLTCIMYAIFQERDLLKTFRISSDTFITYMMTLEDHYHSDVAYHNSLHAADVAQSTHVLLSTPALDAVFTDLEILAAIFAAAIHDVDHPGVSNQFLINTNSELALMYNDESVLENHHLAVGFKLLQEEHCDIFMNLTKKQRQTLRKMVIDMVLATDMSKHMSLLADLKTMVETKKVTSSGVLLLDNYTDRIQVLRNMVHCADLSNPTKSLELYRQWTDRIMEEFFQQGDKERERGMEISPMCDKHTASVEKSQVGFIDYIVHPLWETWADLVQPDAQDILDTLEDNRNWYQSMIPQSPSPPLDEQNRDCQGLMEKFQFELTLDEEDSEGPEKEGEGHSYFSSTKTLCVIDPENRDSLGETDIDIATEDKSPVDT
Method: as §1, §2, §3, §4

PDE4D, PDE4B = settings: some studies have shown; cited from earlier work

Compound | pIC50 (TNF-α) | pIC50 (PDE-4D3) | pIC50 (PDE-4B1) | activity to PDE4D compared with activity to PDE4B (PDE4D, PDE4B)
O=C(NC1CC1)c1nn(-c2cccc(C#Cc3cccnc3)c2)c2ncccc2c1=O [Compound 1, N-cyclopropyl-4-oxo-1-[3-(pyridin-3-ylethynyl)phenyl]-1,4-dihydropyridino[2,3-c]pyridazine-3-formamide] | 7.29 | 8.66 | 8.57 | 
O=C(NC1CC1)c1nn(-c2cccc(Sc3cccnc3)c2)c2ncccc2c1=O [Compound 2, N-cyclopropyl-4-oxo-1-[3-(pyridin-3-ylthio)phenyl]-1,4-dihydropyridino[2,3-c]pyridazine-3-carboxamide] |  | 6.60 | 6.79 | 
O=C(NC1CC1)c1nn(-c2cccc(Oc3cccnc3)c2)c2ncccc2c1=O [Compound 3, N-cyclopropyl-4-oxo-1-(3-(pyridin-3-yloxy)phenyl)-1,4-dihydropyridino[2,3-c]pyridazine-3-carboxamide] |  | 6.45 | 6.52 | 
C[C@@H]1C[C@H]2[C@@H]3CCC4=CC(=O)C=C[C@]4(C)[C@@]3(F)[C@@H](O)C[C@]2(C)[C@@]1(O)C(=O)CO [Dexamethasone, reference compound] | 8.48 |  |  | 
Cilomilast |  |  |  | 10 time
Roflumilast |  |  |  | equivalent activity

Second part, led by results:

pIC50 (TNF-α) | pIC50 (PDE-4D3) | pIC50 (PDE-4B1) | Compound | activity to PDE4D compared with activity to PDE4B (PDE4D, PDE4B)
7.39 | 8.34 | 8.25 | O=C(NC1CC1)c1cn(-c2cccc(C#Cc3ccc[n+]([O-])c3)c2)c2ncccc2c1=O [MK-0873, reference compound] | 
6.96 | 7.72 | 7.55 | O=C(NC1CC1)c1nn(-c2cccc(C#Cc3ccc[n+]([O-])c3)c2)c2ncccc2c1=O [Nitrogen oxide of Compound 1, 3-[[3-[3-(cyclopropylcarbamoyl)-4-oxo-pyridino[2,3-c]pyridazine-1(4H)-yl]phenyl]ethynyl]pyridine-1-oxide] | 
 | 6.19 | 6.28 | O=C(NC1CC1)c1nn(-c2cccc(Oc3ccc[n+]([O-])c3)c2)c2ncccc2c1=O [Nitrogen oxide of Compound 3] | 

— patent US9181244B1, “Substituted pyrido[2,3-c]pyridazin-4(1H)-ones as tumor necrosis factor alpha and phosphodiesterase 4 inhibitors” (Xuanzhu Pharma Co., Ltd., priority 2014, dated 2015)
